Measured values: US12123881B2, “Rap1-Gtp, Rac1-GTP and FMS-like tyrosine kinase 3 ligand (FLT3-L) as biomarkers for early detection of sepsis” (UNM Rainforest Innovations, priority 2018, dated 2024)

Key:
Rap1 [1] = assay: LPS induced GTP loading of Rap1, GTPase activity measured in cell lysates; format: cell-based; details: Vero E cells, exposed for 30 min
Text: (§1) To establish a possible mechanistic link connecting GTPase activity, bacteria virulence factors and innate immune response to bacteria, we measured GTPase activity in cell lysates challenged cells with lipopolysaccharide (LPS) a Gram-negative bacterial endotoxin, which stimulates GTP binding to Rap1 in phagocytes and endothelial cells via CD14^18 (FIGS. 1A&B). […] Given the in vitro associations between Flt-3L and Rac1-GTP, we hypothesized that bacterial infection stimulates coordinate-increases in Flt-3L and Rap1-GTP. Furthermore, based on our data we hypothesized that LPS found in Gram negative bacteria, is likely to synergistically upregulate Rap1-GTP in tandem with Flt-3L which stimulates the upregulation of both Rap1-GTP and Rac-GTP. These findings were subsequently built-upon and extended to a retrospective study of longitudinal samples from trauma patients who developed hospital acquired infections. The human plasma samples were analyzed for 41 common inflammatory mediators using the 41plex HCYTMAG-60K-PX41 Cytokine kit, Human (Millipore, MA). In parallel, GTP loading of RhoA, Rac, and Rap1 was measured in cell lysates after their exposure to the plasma samples. […] We have previously disclosed a method of quantitative multiplex measurements of GTP binding to small GTPases. […]
(§2) C. […] GTPase activity was measured in cell lysates after the cells were exposed to LPS or Flt-3L for 30 min.

ChemR23 = molecular target: T1, ChemR23 (Homo sapiens, UniProt Q99788); assay: G-Trap measurement of Rac1-GTP in cells challenged with Patient #10's plasma, with the ChemR23 antagonist; format: cell-based; details: Patient #10 plasma
T1 construct: endogenous in cells
T1 sequence (Q99788 1-373): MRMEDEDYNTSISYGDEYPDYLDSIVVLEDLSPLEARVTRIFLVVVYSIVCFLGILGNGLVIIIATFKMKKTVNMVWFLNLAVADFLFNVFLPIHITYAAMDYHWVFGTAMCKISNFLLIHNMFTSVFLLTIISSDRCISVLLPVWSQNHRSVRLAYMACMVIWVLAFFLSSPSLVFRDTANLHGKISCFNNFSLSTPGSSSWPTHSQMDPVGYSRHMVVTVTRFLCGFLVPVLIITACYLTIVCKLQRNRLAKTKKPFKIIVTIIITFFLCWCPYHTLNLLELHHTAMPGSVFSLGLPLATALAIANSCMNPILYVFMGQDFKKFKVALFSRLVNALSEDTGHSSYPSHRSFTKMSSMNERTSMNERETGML
Text: As shown in FIGS. 2-4, the inventors use flow cytometry multiplex beads that are functionalized with signaling effector molecules of target GTP bound small GTPases to determine changes in the concentration of active GTPases in the blood plasma of trauma patients before and after a clinically diagnosed infection (FIGS. 6&7). In this setting, the beads capture GTP-bound GTPases in lysates of cells that were challenged with plasma samples of study subjects and then quantitatively analyzed on a flow cytometer.^9
Pilot study Proteomic of Patient #10 and #14 plasma samples. Laser densitometer readings of duplicate patient plasma samples (#10, and #14) were computer analyzed for differential expression of proteins as previously described. Spot data showing significant differences between patient samples and controls were determined from adjusted p-values using FDR (and Bonferroni) analysis as previously described. Ten spots were selected for mass spectrometry analysis. The selection was based on the magnitude of change in expression as well as positive correlation to trends in GTPase activity. Preliminary validation assay were performed Spot #130-CPN for patient 10 and Spot #102; Angiotensinogen for Patient 14, because of their overt connection to GTPase activity profile and the immediate availability of assay tools to confirm their presence. The value proposition of the invention as a clinical decision support tool is illustrated in FIG. 6. FIG. 6A panels show the patient's vital signs, which are indeterminate. The illness history of Patient 10 is summarized in example Case #2 above caption and recapitulated in FIG. 6B. […] The rationale for testing CPN in secondary assays was based on the following. CPN is a metallocarboxypeptidase that regulates complement anaphylatoxins (C3a, C4a, and C5a). [2; 3; 4] For clarity, the expression of carboxypeptidase N (CPN) are superimposed over changes in GTP binding to Rac1 and Rap1 (FIG. 6C) for days 8-11. […] We reasoned that the plasma upregulation of CPN was due to Haemophilus influenzae associated LPS. […] [6; 7; 8] […] [5]

ChemR23 (CMKLR1) = molecular target: T2, ChemR23 (CMKLR1) (Homo sapiens, UniProt Q99788); details: read-out: Kd, antagonist for ChemR23; cited from earlier work
T2 sequence (Q99788 1-373): T1 sequence (Q99788 1-373)

Haemophilus influenzae = assay: Clinical course of Patient #10 under antibiotic treatment, tracked by GTPase assay; format: in vivo, human
Text: FIG. 4 G-Trap data readout, showing: A. Histograms of Cyto-Plex™ beads coded with discrete levels of 700 nm fluorescence beads for target GTPases. B&C. Flow cytometry histograms associated with GTPase activity in cell lysates exposed to blood plasma drawn from Patient #10 shown in FIG. 4D on day 0 (pre-infection) and 11 (post infection). D. Quantitative analysis of GTP binding to cytoplex beads in cell lysates treated with plasma drawn from Patient #10: a person was admitted after being crushed by a car. On day 2 a bacterial infection was suspected, thus a sputum culture was ordered and the patient was treated with broad-spectrum antibiotics including vancomycin and piperacillin/tazobactam. […] Patient's blood pressure trended upwards. On day 7, sputum-culture sent on day #2 was determined to be positive for Haemophilus influenzae and antibiotics were changed to 3 days of ceftriaxone (days 7-9). […] The onset of infection was sensitively detected by an increase in GTP binding to Rap1 and Rac1. […] E. Quantitative analysis of GTPase activity induced by Patient #3 plasma (see FIG. 2A-C). F. Quantitative analysis of GTPase activity induced by Patient #13 plasma. […] G Quantitative analysis of GTPase activity induced by Patient #14 plasma; a person admitted with no injuries after a low-speed car collision. […]

Rap1 [2] = assay: Flt-3L induced GTP binding to Rap1, GTPase activity measured in cell lysates; format: cell-based; details: endothelial cells, exposed for 30 min
Text: as §1, §2

Rac1 = assay: Flt-3L induced GTP binding to Rac1, GTPase activity measured in cell lysates; format: cell-based; details: cells exposed to Flt-3L
Text: as §1

lipopolysaccharide [LPS]
GTP loading of Rap1 (Rap1 [1]): induced GTP loading of Rap1

C[N+](C)(C)CCC(=O)c1cccc2ccccc12.[I-] [α-NETA]
inhibition of GTPase activity (ChemR23; day 6): 40% | inhibition of GTPase activity (ChemR23; day 11): 20% | inhibition of GTPase activity (ChemR23; day 12): 25% | Kd (ChemR23 (CMKLR1)): ~6 µM

CO/N=C(\C(=O)N[C@@H]1C(=O)N2C(C(=O)O)=C(CSc3nc(=O)c(=O)[nH]n3C)CS[C@H]12)c1csc(N)n1 [Ceftriaxone, ceftriaxone]
treatment outcome indicated by GTPase assay (Haemophilus influenzae; Patient #10, 3 days of treatment (days 7-9), read on day 9): failure of treatment | clinical outcome (Haemophilus influenzae; Patient #10, restarted on day 14, lasted 7 days): patient recovery

B1: Flt-3L: hematopoietic four helical bundle cytokine, Fms-like tyrosine kinase-3 ligand (protein, UniProt P49771 27-235, looked up)
Fms-related tyrosine kinase 3 …: TQDCSFQHSPISSDFAVKIRELSDYLLQDYPVTVASNLQDEELCGGLWRLVLAQRWMERLKTVAGSKMQGLLERVNTEIHFVTKCAFQPPPSCLRFVQTNISRLLQETSEQLVALKPWITRQNFSRCLELQCQPDSSTLPPPWSPRPLEATAPTAPQPPLLLLLLLPVGLLLLAAAWCLHWQRTRRRTPRPGEQVPPVPSPQDLLLVEH
GTP binding to Rap1 (Rap1 [2]): induced GTP binding to Rap1 | GTP binding to Rac1 (Rac1): elicited GTP binding to Rap1 and Rac1
